Test results reported in BindingDB's records for doi:10.1021/np0302302 (Schering-Plough Research Institute, 2003).

Biological target: DNA primase DnaG (Escherichia coli) (UniProt P0ABS5)
Test: Inhibition of Escherichia coli DNA primase after 1 hr by [3H]rNTPs incorporation assay

Chain of DNA primase DnaG (Escherichia coli) (P0ABS5 whole entry, looked up): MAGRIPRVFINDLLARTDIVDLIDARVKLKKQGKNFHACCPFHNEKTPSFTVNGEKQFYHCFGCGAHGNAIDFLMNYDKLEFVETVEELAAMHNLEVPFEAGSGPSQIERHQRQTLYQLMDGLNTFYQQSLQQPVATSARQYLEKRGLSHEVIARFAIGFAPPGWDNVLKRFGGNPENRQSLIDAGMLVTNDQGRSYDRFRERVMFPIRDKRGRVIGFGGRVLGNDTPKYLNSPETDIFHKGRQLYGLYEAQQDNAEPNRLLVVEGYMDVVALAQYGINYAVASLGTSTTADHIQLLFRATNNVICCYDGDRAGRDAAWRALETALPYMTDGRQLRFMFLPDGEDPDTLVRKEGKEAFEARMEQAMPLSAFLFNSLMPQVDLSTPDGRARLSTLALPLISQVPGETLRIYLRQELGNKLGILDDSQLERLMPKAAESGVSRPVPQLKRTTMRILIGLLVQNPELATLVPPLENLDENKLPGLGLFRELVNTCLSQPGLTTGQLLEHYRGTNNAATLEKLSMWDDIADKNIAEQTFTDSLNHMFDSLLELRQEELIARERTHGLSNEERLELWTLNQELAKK

## C[C@H]1CCCC[C@H]2C(=O)C=C[C@H](O)[C@@H]2CC(=O)O1 [(4S,8aR,12S,12aR)-12-hydroxy-4-methyl-4,5,6,7,8,8a-hexahydro-1H-benzo[d]oxecine-2,9(12H,12aH)-dione]
  EC50: 70 µM
